According to paper PMC12298351, “Novel 3,19-(N-Phenyl-3-(4-fluorophenyl)-pyrazole) Acetal of Andrographolide Promotes Cell Cycle Arrest and Apoptosis in MDA-MB-231 Breast Cancer Cells” (Pharmaceuticals, 2025):

Columns and labels:
OVCAR-5 = settings: OVCAR-5, Ovarian; for CC50: read-out: 50% lethal concentration (LC50)
NCI-H23 = settings: for Total growth inhibition (TGI) / CC50: NCI-H23, Non-Small Cell Lung; for GI50: NCI-H23, Non-Small-Cell Lung; for CC50: read-out: 50% lethal concentration (LC50)
[1] = DPPH radical scavenging assay; settings: 25 µM test compound, 0.1 mM DPPH, acetonitrile, 30 min
Summary of the method: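 Compounds at 25 µM in acetonitrile mixed 1:2 with 0.1 mM DPPH in acetonitrile, kept 30 min in the dark at room temperature. Absorbance read at 517 nm; % scavenging = (Ac − As)/Ac × 100, Ac being DPPH blank. Ascorbic acid positive control.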

COLO 205 = settings: COLO 205, Colon
T-47D = settings: for GI50 / Total growth inhibition (TGI): Breast; for CC50: read-out: 50% lethal concentration (LC50), Breast
HCT-15 = settings: HCT-15, Colon; for CC50: read-out: 50% lethal concentration (LC50)
HCT-116 = type: cell-based; settings: HCT-116, Colon; for CC50: read-out: 50% lethal concentration (LC50)
HCC-2998 = settings: HCC-2998, Colon
MDA-MB-231 = settings: for GI50: MDA-MB-231, Breast; for Total growth inhibition (TGI) / CC50: MDA-MB-231/ATCC, Breast; for CC50: read-out: 50% lethal concentration (LC50)
SK-MEL-5 = settings: SK-MEL-5, Melanoma; for CC50: read-out: 50% lethal concentration (LC50)
BT-549 = type: cell-based; settings: BT-549, Breast
HS 578T = settings: for GI50 / Total growth inhibition (TGI): Breast; for CC50: read-out: 50% lethal concentration (LC50), Breast
786-0 = settings: 786-0, Renal; for CC50: read-out: 50% lethal concentration (LC50)
HL-60(TB) = settings: for CC50: read-out: 50% lethal concentration (LC50), Leukemia
OVCAR-4 = type: cell-based; settings: OVCAR-4, Ovarian; for CC50: read-out: 50% lethal concentration (LC50)
SNB-19 = type: cell-based; settings: SNB-19, CNS
PC-3 = settings: PC-3, Prostate; for CC50: read-out: 50% lethal concentration (LC50)
SF-295 = settings: SF-295, CNS; for CC50: read-out: 50% lethal concentration (LC50)
MDA-MB-435 = settings: MDA-MB-435, Melanoma; for CC50: read-out: 50% lethal concentration (LC50)
HT29 = settings: HT29, Colon; for CC50: read-out: 50% lethal concentration (LC50)
NCI-H522 = settings: for Total growth inhibition (TGI) / CC50: NCI-H522, Non-Small Cell Lung; for GI50: NCI-H522, Non-Small-Cell Lung; for CC50: read-out: 50% lethal concentration (LC50)
NCI-H226 = settings: for Total growth inhibition (TGI) / CC50: NCI-H226, Non-Small Cell Lung; for GI50: NCI-H226, Non-Small-Cell Lung; for CC50: read-out: 50% lethal concentration (LC50)
MOLT-4 = settings: MOLT-4, Leukemia; for CC50: read-out: 50% lethal concentration (LC50)
SK-MEL-2 = settings: SK-MEL-2, Melanoma
MALME-3M = settings: Melanoma
SNB-75 = settings: SNB-75, CNS; for CC50: read-out: 50% lethal concentration (LC50)
SF-539 = settings: SF-539, CNS; for CC50: read-out: 50% lethal concentration (LC50)
HOP-92 = settings: for Total growth inhibition (TGI) / CC50: HOP-92, Non-Small Cell Lung; for GI50: HOP-92, Non-Small-Cell Lung; for CC50: read-out: 50% lethal concentration (LC50)

C=C1CCC2C3(C)COC(c4cn(-c5ccccc5)nc4-c4ccc(Br)cc4)OC3CCC2(C)C1CC=C1C(=O)OCC1O (stereo not drawn) [1h]
GI50 (OVCAR-5): 1930 nM | Total growth inhibition (TGI) (OVCAR-5): 5.08 µM | CC50 (OVCAR-5): > 100 µM | Total growth inhibition (TGI) (NCI-H23): 3.62 µM | GI50 (NCI-H23): 1710 nM | CC50 (NCI-H23): 7.67 µM | % DPPH radical scavenging activity [1]: 57.51% | GI50 (COLO 205): 1700 nM | Total growth inhibition (TGI) (COLO 205): 3.51 µM | GI50 (T-47D): 1180 nM | Total growth inhibition (TGI) (T-47D): 3.13 µM | CC50 (T-47D): 8.33 µM | GI50 (HCT-15): 1600 nM | Total growth inhibition (TGI) (HCT-15): 3.3 µM | CC50 (HCT-15): 6.83 µM | GI50 (HCT-116): 940 nM | Total growth inhibition (TGI) (HCT-116): 2.48 µM | CC50 (HCT-116): 6.3 µM | GI50 (HCC-2998): 1830 nM | Total growth inhibition (TGI) (HCC-2998): 3.49 µM | GI50 (MDA-MB-231): 1590 nM | Total growth inhibition (TGI) (MDA-MB-231): 3.14 µM | CC50 (MDA-MB-231): 6.19 µM | GI50 (SK-MEL-5): 1600 nM | Total growth inhibition (TGI) (SK-MEL-5): 2.96 µM | CC50 (SK-MEL-5): 5.44 µM | GI50 (BT-549): 1470 nM | Total growth inhibition (TGI) (BT-549): 3.5 µM | GI50 (HS 578T): 1520 nM | Total growth inhibition (TGI) (HS 578T): 3.01 µM | CC50 (HS 578T): 5.94 µM | GI50 (786-0): 2070 nM | Total growth inhibition (TGI) (786-0): 4.49 µM | CC50 (786-0): 9.76 µM | GI50 (HL-60(TB); Leukemia): 670 nM | CC50 (HL-60(TB)): > 100 µM | GI50 (OVCAR-4): 1890 nM | Total growth inhibition (TGI) (OVCAR-4): 4.27 µM | CC50 (OVCAR-4): > 100 µM | GI50 (SNB-19): 1470 nM | GI50 (PC-3): 2030 nM | CC50 (PC-3): > 100 µM | GI50 (SF-295): 1540 nM | Total growth inhibition (TGI) (SF-295): 2.93 µM | CC50 (SF-295): 5.57 µM | GI50 (MDA-MB-435): 1670 nM | Total growth inhibition (TGI) (MDA-MB-435): 3.34 µM | CC50 (MDA-MB-435): 6.67 µM | GI50 (HT29): 2160 nM | Total growth inhibition (TGI) (HT29): 6.51 µM | CC50 (HT29): > 100 µM | Total growth inhibition (TGI) (NCI-H522): 3.37 µM | GI50 (NCI-H522): 1690 nM | CC50 (NCI-H522): 6.68 µM | Total growth inhibition (TGI) (NCI-H226): 2.8 µM | GI50 (NCI-H226): 1360 nM | CC50 (NCI-H226): 5.77 µM | GI50 (MOLT-4): 610 nM | CC50 (MOLT-4): > 100 µM | GI50 (SK-MEL-2): 1760 nM | Total growth inhibition (TGI) (SK-MEL-2): 3.18 µM | GI50 (MALME-3M): 1600 nM | Total growth inhibition (TGI) (MALME-3M): 3.11 µM | GI50 (SNB-75): 1510 nM | Total growth inhibition (TGI) (SNB-75): 2.91 µM | CC50 (SNB-75): 5.75 µM | GI50 (SF-539): 1760 nM | Total growth inhibition (TGI) (SF-539): 3.18 µM | CC50 (SF-539): 5.73 µM | Total growth inhibition (TGI) (HOP-92): 2.92 µM | GI50 (HOP-92): 1380 nM | CC50 (HOP-92): 6.2 µM

C=C1CCC2C3(C)COC(c4cn(-c5ccccc5)nc4-c4ccc(Cl)cc4)OC3CCC2(C)C1CC=C1C(=O)OCC1O (stereo not drawn) [1g]
GI50 (OVCAR-5): 1980 nM | Total growth inhibition (TGI) (OVCAR-5): 5.38 µM | CC50 (OVCAR-5): > 100 µM | Total growth inhibition (TGI) (NCI-H23): 3.59 µM | GI50 (NCI-H23): 1730 nM | CC50 (NCI-H23): 7.45 µM | % DPPH radical scavenging activity [1]: 57.45% | GI50 (COLO 205): 2300 nM | Total growth inhibition (TGI) (COLO 205): 5.58 µM | GI50 (T-47D): 1310 nM | Total growth inhibition (TGI) (T-47D): 3.6 µM | CC50 (T-47D): > 100 µM | GI50 (HCT-15): 1590 nM | Total growth inhibition (TGI) (HCT-15): 3.21 µM | CC50 (HCT-15): 6.51 µM | GI50 (HCT-116): 1200 nM | Total growth inhibition (TGI) (HCT-116): 2.53 µM | CC50 (HCT-116): 5.37 µM | GI50 (HCC-2998): 1880 nM | Total growth inhibition (TGI) (HCC-2998): 3.39 µM | GI50 (MDA-MB-231): 1680 nM | Total growth inhibition (TGI) (MDA-MB-231): 4.6 µM | CC50 (MDA-MB-231): 6.25 µM | GI50 (SK-MEL-5): 1700 nM | Total growth inhibition (TGI) (SK-MEL-5): 3.11 µM | CC50 (SK-MEL-5): 5.69 µM | GI50 (BT-549): 1490 nM | Total growth inhibition (TGI) (BT-549): 3.37 µM | GI50 (HS 578T): 1750 nM | Total growth inhibition (TGI) (HS 578T): 3.24 µM | CC50 (HS 578T): 6.45 µM | GI50 (786-0): 1990 nM | Total growth inhibition (TGI) (786-0): 4.17 µM | CC50 (786-0): 8.7 µM | GI50 (HL-60(TB); Leukemia): 2670 nM | Total growth inhibition (TGI) (HL-60(TB); Leukemia): > 100 µM | CC50 (HL-60(TB)): > 100 µM | GI50 (OVCAR-4): 2030 nM | Total growth inhibition (TGI) (OVCAR-4): 5.15 µM | CC50 (OVCAR-4): > 100 µM | GI50 (SNB-19): 1400 nM | GI50 (PC-3): 2070 nM | Total growth inhibition (TGI) (PC-3): > 100 µM | CC50 (PC-3): > 100 µM | GI50 (SF-295): 1500 nM | Total growth inhibition (TGI) (SF-295): 2.88 µM | CC50 (SF-295): 5.51 µM | GI50 (MDA-MB-435): 1650 nM | Total growth inhibition (TGI) (MDA-MB-435): 3.28 µM | CC50 (MDA-MB-435): 6.51 µM | GI50 (HT29): 1690 nM | Total growth inhibition (TGI) (HT29): 4.64 µM | CC50 (HT29): > 100 µM | Total growth inhibition (TGI) (NCI-H522): 3.12 µM | GI50 (NCI-H522): 1580 nM | CC50 (NCI-H522): 6.17 µM | Total growth inhibition (TGI) (NCI-H226): 3.05 µM | GI50 (NCI-H226): 1550 nM | CC50 (NCI-H226): 5.99 µM | GI50 (MOLT-4): 880 nM | Total growth inhibition (TGI) (MOLT-4): > 100 µM | CC50 (MOLT-4): > 100 µM | GI50 (SK-MEL-2): 1770 nM | Total growth inhibition (TGI) (SK-MEL-2): 3.25 µM | GI50 (MALME-3M): 1820 nM | Total growth inhibition (TGI) (MALME-3M): 3.41 µM | GI50 (SNB-75): 1690 nM | Total growth inhibition (TGI) (SNB-75): 2.87 µM | CC50 (SNB-75): 5.87 µM | GI50 (SF-539): 1720 nM | Total growth inhibition (TGI) (SF-539): 3.12 µM | CC50 (SF-539): 5.66 µM | Total growth inhibition (TGI) (HOP-92): 3.08 µM | GI50 (HOP-92): 1500 nM | CC50 (HOP-92): 6.32 µM
